Source: patent publication US6693108B2, “Inhibitors of c-JUN N terminal kinases (JNK) and other protein kinases” (Vertex Pharmaceuticals Incorporated, priority 1999, dated 2004)
pKi: −log10 of the molar value.

These compounds were tested against T1, activated JNK3 (Homo sapiens, UniProt P53779) (assay: JNK3 inhibition, spectrophotometric coupled-enzyme assay). Conditions: activated JNK3 10 nM, 10 μM ATP, 30° C.; Ki from competitive inhibition model.
T1 construct: One such construct encodes amino acid residues Ser40-Glu402 of JNK3α1 and is preceded by Met and Gly residues; Met-Gly (initiation Met plus Gly added to create the NcoI site) (N); made in house; host or cells: E. coli BL21 (DE3)
T1 sequence (P53779 40-402): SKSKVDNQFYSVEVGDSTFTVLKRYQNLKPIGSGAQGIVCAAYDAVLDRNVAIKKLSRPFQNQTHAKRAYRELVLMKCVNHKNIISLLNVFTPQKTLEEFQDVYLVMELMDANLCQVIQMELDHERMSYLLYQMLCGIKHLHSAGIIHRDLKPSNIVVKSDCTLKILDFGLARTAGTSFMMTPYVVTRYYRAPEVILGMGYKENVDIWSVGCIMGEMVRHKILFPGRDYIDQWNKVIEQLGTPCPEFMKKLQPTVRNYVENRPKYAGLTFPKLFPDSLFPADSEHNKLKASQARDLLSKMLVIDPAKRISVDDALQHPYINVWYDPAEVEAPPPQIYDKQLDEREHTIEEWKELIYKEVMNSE
Assay type: biochemical
Design: Activity in the JNK3 Inhibition Assay (Ki rating): scale not given here
Source text: A BLAST search of the EST database using the published JNK3α1 cDNA as a query identified an EST clone (#632588) that contained the entire coding sequence for human JNK3α1. Polymerase chain reactions (PCR) using pfu polymerase (Strategene) were used to introduce restriction sites into the cDNA for cloning into the pET-15B expression vector at the NcoI and BamHI sites. The protein was expressed in E. coli. […] This truncation corresponds to Ser 2 of JNK1 and JNK2 proteins, and is preceded by a methionine (initiation) and a glycine residue. The glycine residue was added in order to introduce an NcoI site for cloning into the expression vector. In addition, systematic C-terminal truncations were performed by PCR to identify a construct that give rise to diffraction-quality crystals.
5 mg of JNK3 was diluted to 0.5 mg/ml in 50 mM HEPES buffer, pH 7.5, containing 100 mM NaCl, 5 mM DTT, 20 mM MgCl2 and 1 mM ATP. GST-MKK7(DD) was added at a molar ratio of 1:2.5 GST-MKK7:JNK3. After incubation for 30 minutes at 25° C., the reaction mixture was concentrated 5-fold by ultrafiltration in a Centriprep-30 (Amicon, Beverly, Mass.), diluted to 10 ml and an additional 1 mM ATP added. This procedure was repeated three times to remove ADP and replenish ATP. The final addition of ATP was 5 mM and the mixture incubated overnight at 4° C.
The activated JNK3/GST-MKK7(DD) reaction mixture was exchanged into 50 mM HEPES buffer, pH 7.5, containing 5 mM DTT and 5% glycerol (w/v) by dialysis or ultrafiltration. The reaction mixture was adjusted to 1.1 M potassium phosphate, pH 7.5, and purified by hydrophobic interaction chromatography (at 25° C.) using a Rainin Hydropore column. […] Activated JNK3 (i.e. doubly phosphorylated JNK3) was stored at −70° C. at 0.25-1 mg/ml.
Compounds were assayed for the inhibition of JNK3 by a spectrophotometric coupled-enzyme assay. In this assay, a fixed concentration of activated JNK3 (10 nM) was incubated with various concentrations of a potential inhibitor dissolved in DMSO for 10 minutes at 30° C. in a buffer containing 0.1 M HEPES buffer, pH 7.5, containing 10 mM MgCl2, 2.5 mM phosphoenolpyruvate, 200 μM NADH, 150 μg/mL pyruvate kinase, 50 μg/mL lactate dehydrogenase, and 200 μM EGF receptor peptide. […] The reaction was initiated by the addition of 10 μM ATP and the assay plate is inserted into the spectrophotometer's assay plate compartment that was maintained at 30° C. The decrease of absorbance at 340 nm was monitored as a function of time. The rate data as a function of inhibitor concentration was fitted to competitive inhibition kinetic model to determine the Ki.

Row | SMILES | Activity in the JNK3 Inhibition Assay (Ki rating)
1 | COc1cccc(-c2noc(C)c2-c2ccnc(Nc3ccccc3)n2)c1OC [IIA-12] | B/C
2 | Cc1onc(-c2ccccc2)c1-c1ccnc(Nc2cccc(F)c2C)n1 [IIA-70] | A/B

Now from value to compound:

Row | Activity in the JNK3 Inhibition Assay (Ki rating) | SMILES
3 | A/B | COc1ccc(Cl)c(Nc2nccc(-c3c(-c4ccccc4)noc3C)n2)c1 [IIA-71]
4 | A/B | COc1ccc(Nc2nccc(-c3c(-c4ccccc4)noc3C)n2)cc1C [IIA-72]

Same assay, conditions: read-out: Activity in the JNK3 Inhibition Assay (Ki rating)

Row | SMILES | pKi
5 | Cc1onc(-c2ccccc2)c1-c1ccnc(Nc2cccc(C#N)c2)n1 [IIA-7] | > 7.00
6 | Cc1onc(-c2ccc(F)cc2)c1-c1ccnc(Nc2ccccc2)n1 [IIA-11] | > 7.00
7 | Cc1onc(-c2ccc(Cl)c(Cl)c2)c1-c1ccnc(Nc2ccccc2)n1 [IIA-15] | 6.00 to 7.00
8 | CC(=O)c1ccc(Nc2nccc(-c3c(-c4ccccc4)noc3C)n2)cc1 [IIA-35] | > 7.00
9 | Cc1cc(Nc2nccc(-c3c(-c4ccccc4)noc3C)n2)ccc1C#N [IIA-38] | > 7.00
10 | CC(=O)c1cccc(Nc2nccc(-c3c(-c4ccccc4)noc3C)n2)c1 [IIA-39] | > 7.00
11 | Cc1onc(-c2ccccc2)c1-c1ccnc(Nc2ccc(F)cc2)n1 [IIA-42] | > 7.00
12 | Cc1onc(-c2ccccc2)c1-c1ccnc(Nc2cccc(C(=O)O)c2)c1 [IIA-43] | > 7.00
13 | CSc1ccc(Nc2nccc(-c3c(-c4ccccc4)noc3C)n2)cc1 [IIA-46] | > 7.00
14 | COc1ccc(Nc2cc(-c3c(-c4ccccc4)noc3C)ccn2)cc1 [IIA-47] | > 7.00
15 | Cc1onc(-c2ccccc2)c1-c1ccnc(Nc2ccc(C(=O)O)cc2)c1 [IIA-53] | > 7.00
16 | Cc1onc(-c2ccccc2F)c1-c1ccnc(Nc2ccccc2)n1 [IIA-55] | > 7.00
17 | Cc1onc(-c2ccccc2)c1-c1ccnc(Nc2ccc(F)cc2F)n1 [IIA-56] | > 7.00
18 | Cc1onc(-c2ccccc2)c1-c1ccnc(Nc2ccccc2F)n1 [IIA-59] | > 7.00
19 | Cc1onc(-c2c(F)cccc2F)c1-c1ccnc(Nc2ccccc2)n1 [IIA-60] | > 7.00
20 | COc1ccccc1Nc1nccc(-c2c(-c3ccccc3)noc2C)n1 [IIA-62] | > 7.00
21 | Cc1onc(-c2ccccc2)c1-c1ccnc(Nc2ccc(S(C)(=O)=O)cc2)n1 [IIA-63] | > 7.00
22 | COC(=O)c1ccc(Nc2cc(-c3c(-c4ccccc4)noc3C)ccn2)cc1 [IIA-64] | > 7.00
23 | Cc1onc(-c2cccc(F)c2)c1-c1ccnc(Nc2ccccc2)n1 [IIA-66] | > 7.00
24 | Cc1onc(-c2ccccc2)c1-c1ccnc(Nc2cccc(C#N)c2)c1 [IIA-67] | > 7.00
25 | Cc1onc(-c2c(F)cccc2Cl)c1-c1ccnc(Nc2ccccc2)n1 [IIA-75] | 6.00 to 7.00
26 | Cc1onc(-c2ccccc2Cl)c1-c1ccnc(Nc2ccccc2)n1 [IIA-76] | 6.00 to 7.00
27 | Cc1onc(-c2ccccc2Br)c1-c1ccnc(Nc2ccccc2)n1 [IIA-79] | 6.00 to 7.00

Row | SMILES | pKi
28 | Cc1onc(-c2cccc(F)c2F)c1-c1ccnc(Nc2ccccc2)n1 [IIA-80] | 6.00 to 7.00
29 | Cc1onc(-c2cccc(C(F)(F)F)c2)c1-c1ccnc(Nc2ccccc2)n1 [IIA-82] | 6.00 to 7.00
30 | Cc1noc(C)c1-c1ccnc(Nc2ccccc2)n1 [IIA-86] | < 6.00
31 | Cc1onc(C(C)(C)C)c1-c1ccnc(Nc2ccccc2)n1 [IIA-90] | > 7.00
32 | Cc1onc(-c2c(F)cccc2F)c1-c1ccnc(Nc2cccc(F)c2)n1 [IIA-94] | > 7.00
33 | CSc1ccc(Nc2nccc(-c3c(-c4c(F)cccc4F)noc3C)n2)cc1 [IIA-97] | > 7.00
34 | Cc1onc(-c2ccccc2)c1-c1ccnc(Nc2ccc(N(C)C)cc2)c1 [IIA-98] | > 7.00
35 | Cc1ccc(Nc2nccc(-c3c(-c4ccccc4)noc3C)n2)cc1 [IIA-103] | > 7.00
36 | Cc1ccccc1-c1noc(C)c1-c1ccnc(Nc2ccccc2)n1 [IIA-104] | > 7.00
37 | Cc1ccccc1-c1noc(C)c1-c1ccnc(Nc2ccc(C#N)c(F)c2)n1 [IIA-105] | > 7.00
38 | Cc1cccc(Nc2nccc(-c3c(-c4ccccc4C)noc3C)n2)c1 [IIA-108] | > 7.00
39 | Cc1ccccc1-c1noc(C)c1-c1ccnc(Nc2cccc(C#N)c2)n1 [IIA-109] | > 7.00
40 | Cc1onc(-c2ccccc2C(F)(F)F)c1-c1ccnc(Nc2ccccc2)n1 [IIA-112] | < 6.00
41 | Cc1onc(-c2cccc(OCc3ccccc3)c2)c1-c1ccnc(Nc2ccc(C#N)c(F)c2)n1 [IIA-117] | 6.00 to 7.00
42 | Cc1onc(-c2cccc([N+](=O)[O-])c2)c1-c1ccnc(Nc2ccccc2)n1 [IIA-123] | 6.00 to 7.00
43 | Cc1onc(-c2cccc(C#N)c2)c1-c1ccnc(Nc2cccc(C#N)c2)n1 [IIA-126] | 6.00 to 7.00
44 | COC(=O)c1cccc(Nc2nccc(-c3c(-c4cccc(C#N)c4)noc3C)n2)c1 [IIA-129] | 6.00 to 7.00
45 | CCOC(=O)c1cccc(Nc2nccc(-c3c(-c4ccccc4)noc3C)n2)c1 [IIA-130] | > 7.00
46 | Cc1onc(-c2ccccc2)c1-c1ccnc(Nc2cccc(CC(=O)O)c2)c1 [IIA-133] | > 7.00
47 | Cc1onc(-c2ccccc2)c1-c1ccnc(Nc2cccc(CO)c2)c1 [IIA-134] | > 7.00
48 | Cc1onc(-c2ccccc2)c1-c1ccnc(Nc2cccc(CCC(=O)N[C@@H](C(=O)OC(C)(C)C)C(C)C)c2)c1 [IIA-135] | 6.00 to 7.00
49 | COc1ccc2cc(Nc3nccc(-c4c(-c5ccccc5)noc4C)n3)ccc2c1 [IIAA-10] | > 7.00
50 | Cc1onc(-c2ccccc2)c1-c1ccnc(Nc2ccc3c(c2)CCC3=O)n1 [IIAA-11] | > 7.00

Results, then the compound that gave them:

Row | pKi | SMILES
51 | > 7.00 | Cc1onc(-c2ccccc2)c1-c1ccnc(Nc2ccccc2)n1 [IIA-1, [4-(5-Methyl-3-phenyl-isoxazol-4-yl)-pyrimidin-2-yl]-phenyl-amine]
52 | < 6.00 | COc1ccc(-c2noc(C)c2-c2ccnc(Nc3ccccc3)n2)c(OC)c1 [IIA-13]
53 | > 7.00 | CSc1cccc(Nc2nccc(-c3c(-c4ccccc4)noc3C)n2)c1 [IIA-37]
54 | > 7.00 | CCc1onc(-c2ccccc2)c1-c1ccnc(Nc2ccccc2)c1 [IIA-40]
55 | > 7.00 | Cc1onc(-c2ccccc2)c1-c1ccnc(Nc2ccc(-c3ccccc3)cc2)n1 [IIA-44]
56 | > 7.00 | Cc1onc(-c2ccccc2)c1-c1ccnc(Nc2ccccc2)c1 [IIA-52, [4-(5-Methyl-3-phenyl-isoxazol-4-yl)-pyridin-2-yl]phenyl-amine]
57 | > 7.00 | COc1ccc(Nc2nccc(-c3c(-c4ccccc4)noc3C)n2)c(C)c1 [IIA-61]
58 | 6.00 to 7.00 | Cc1onc(-c2cc(F)ccc2F)c1-c1ccnc(Nc2ccccc2)n1 [IIA-74]
59 | 6.00 to 7.00 | Cc1onc(-c2cc(F)cc(F)c2)c1-c1ccnc(Nc2ccccc2)n1 [IIA-83]
60 | 6.00 to 7.00 | Cc1onc(-c2c(Cl)cccc2Cl)c1-c1ccnc(Nc2ccccc2)n1 [IIA-84]
61 | < 6.00 | COc1cccc(-c2noc(C)c2-c2ccnc(Nc3ccccc3)n2)c1OC [IIA-85]
62 | < 6.00 | Cc1onc(C2CC2)c1-c1ccnc(Nc2ccccc2)n1 [IIA-87]
63 | > 7.00 | Cc1onc(-c2c(F)cccc2F)c1-c1ccnc(Nc2cccc(C#N)c2)n1 [IIA-92]
64 | > 7.00 | Cc1onc(-c2c(F)cccc2F)c1-c1ccnc(Nc2ccc(C#N)cc2)n1 [IIA-93]
65 | > 7.00 | Cc1onc(-c2c(F)cccc2F)c1-c1ccnc(Nc2ccc(F)cc2)n1 [IIA-95]
66 | < 6.00 | Cc1onc(-c2ccccc2C(F)(F)F)c1-c1ccnc(Nc2ccc(C#N)c(F)c2)n1 [IIA-110]
67 | 6.00 to 7.00 | Cc1onc(-c2ccc3c(c2)OCO3)c1-c1ccnc(Nc2ccccc2)n1 [IIA-115]
68 | 6.00 to 7.00 | Cc1onc(-c2cccc(OCc3ccccc3)c2)c1-c1ccnc(Nc2ccccc2)n1 [IIA-119]
69 | 6.00 to 7.00 | Cc1onc(-c2cccc(C#N)c2)c1-c1ccnc(Nc2ccccc2)n1 [IIA-127]
70 | 6.00 to 7.00 | CCOC(=O)c1ccc(Nc2nccc(-c3c(-c4cccc([N+](=O)[O-])c4)noc3C)n2)cc1 [IIA-128]
71 | > 7.00 | Cc1onc(-c2ccccc2)c1-c1ccnc(Nc2cccc(CCC(=O)O)c2)c1 [IIA-132]
72 | 6.00 to 7.00 | Cc1onc(-c2ccccc2)c1-c1ccnc(Nc2ccc3ccccc3c2)n1 [IIAA-4]
